Like-named read-outs stand apart in the source and are kept apart here.
Tests used:
CfEcR-DEF mutant A110W = CfEcR-DEF mutant A110W (Choristoneura fumiferana, UniProt O77255, A393W); assay: cell-based; conditions: for Emax: NIH3T3, 40 h, read-out: Rel Max FI
Method in brief: (§1)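 Mutant CfEcR-DEF receptor and GAL4-driven luciferase reporter constructs transfected into mouse NIH3T3 cells with DMSO or ligand added; maintained 48 h at 37° C in 5% FBS, harvested 40 h after ligand addition. Dual-luciferase read-out; fold induction = RLU with ligand / RLU with DMSO.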

CfEcR-DEF mutant M125R = CfEcR-DEF mutant M125R (Choristoneura fumiferana, UniProt O77255, M408R); assay: cell-based; conditions: for Emax: NIH3T3, 40 h, read-out: Rel Max FI
Method in brief: as §1

CfEcR-DEF mutant F48N = CfEcR-DEF mutant F48N (Choristoneura fumiferana, UniProt O77255, F331N); assay: GAL4-driven luciferase reporter assay in NIH3T3 cells; type: cell-based; conditions: for Emax: NIH3T3, 40 h, read-out: Rel Max FI
Method: (§2) This construct was prepared in the same way as in switch 1.1 above except wild-type CfEcR-DEF was replaced with mutant CfEcR-DEF comprising a ligand binding domain comprising a substitution mutation selected from Table 1 below.
(§3) DNAs were transfected into mouse NIH3T3 cells (ATCC) as follows. Standard methods for culture and maintenance of the cells were followed. Cells were harvested and plated 96-well plates at 2,500 cells per well, in 50 μL of growth medium containing 10% fetal bovine serum (FBS). Twenty-four hours later, the cells were treated with 35 μL of serum-free growth medium containing either dimethylsulfoxide (DMSO; control) or a DMSO solution of ligand. The cells were then transfected using Superfect (Qiagen Inc.) transfection reagent. For each well, 0.625 μL of Superfect was mixed with 14.2 μL of serum-free growth medium. 0.16 μg of reporter construct and 0.04 μg of each receptor construct were added to the transfection reagent mix. The contents of the transfection mix were mixed in a vortex mixer and let stand at room temperature for 30 minutes. At the end of incubation, 15 μL of transfection mix was added to the cells. The cells were maintained at 37° C. and 5% CO2 for 48 hours in 5% FBS.
(§4) Reporter Assays: Cells were harvested 40 hours after adding ligands. 125 μL of passive lysis buffer (part of Dual-Luciferase reporter assay system from Promega Corporation) were added to each well of the […] plate. The plates were placed on a rotary shaker for 15 minutes. Twenty μL of lysate were assayed. Luciferase activity was measured using Dual-Luciferase reporter assay system from Promega Corporation following the manufacturer's instructions. Fold induction (FI) activities were calculated by dividing relative light units (“RLU”) in ligand treated cells with RLU in DMSO treated cells (untreated control).

CfEcR-DEF mutant M125W = CfEcR-DEF mutant M125W (Choristoneura fumiferana, UniProt O77255, M408W); assay: as above; type: cell-based; conditions: for Emax: NIH3T3, 40 h, read-out: Rel Max FI
Method: as §2, §3, §4

[1] = biological target: CfEcR-DEF mutant T52V/A110P (Choristoneura fumiferana, UniProt O77255, A393P/T335V); assay: as above; type: cell-based; conditions: for Emax: NIH3T3, 40 h, read-out: Rel Max FI
Method: as §2, §3, §4

[2] = biological target: CfEcR-DEF mutant V107I/Y127E/T52V (Choristoneura fumiferana, UniProt O77255, T335V/V390I/Y410E); assay: as above; type: cell-based; conditions: for Emax: NIH3T3, 40 h, read-out: Rel Max FI
Method: as §2, §3, §4

[3] = biological target: CfEcR-DEF mutant V107I/Y127E/G (Choristoneura fumiferana, UniProt O77255, INS541G/V390I/Y410E); assay: as above; type: cell-based; conditions: for Emax: NIH3T3, 40 h, read-out: Rel Max FI
Method: as §2
The Gal-4-CfEcR-DEF(VYG) mutant was created by inserting an extra glycine at the C-terminal end of EcR substitution mutant V107I/Y127E [CfECR(VY)] by PCR. Essentially, this was done in two steps: PCR-amplification of CfEcR-DEF(VYG) and substitution of the CfEcR(VY) in the vector GAL4-CfEcR DEF(VY) pBIND 1-9 with the PCR-amplified CfEcR-DEF(VYG). The CfEcR-DEF region (with the extra glycine) was amplified by using the vector GAL4-CfEcR DEF(VY) pBIND 1-9 as template and the following PCR primers: […]
as §3, §4

CfEcR-DEF mutant L132M = CfEcR-DEF mutant L132M (Choristoneura fumiferana, UniProt O77255, L415M); assay: cell-based; type: cell-based; conditions: for Emax: NIH3T3, 40 h, read-out: Rel Max FI, mutant L132M
Method: as §2, §3, §4

CfEcR-DEF mutant F109P = assay: GAL4-driven luciferase reporter assay in NIH3T3 cells; type: cell-based, Choristoneura fumiferana
Method: as §2, §3, §4

CfEcR-DEF mutant I51N = assay: as above; type: cell-based, Choristoneura fumiferana
Method: as §2, §3, §4

CfEcR-DEF mutant L132N = assay: as above; type: cell-based, Choristoneura fumiferana
Method: as §2, §3, §4

CfEcR-DEF mutant N119F = assay: as above; type: cell-based, Choristoneura fumiferana
Method: as §2, §3, §4

CfEcR-DEF mutant F48R = CfEcR-DEF mutant F48R (Choristoneura fumiferana, UniProt O77255, F331R); assay: as above; type: cell-based
Method: as §2, §3, §4

CfEcR-DEF mutant L234W = CfEcR-DEF mutant L234W (Choristoneura fumiferana, UniProt O77255, L517W); assay: as above; type: cell-based
Method: as §2, §3, §4

CfEcR-DEF mutant M125I = CfEcR-DEF mutant M125I (Choristoneura fumiferana, UniProt O77255, M408I); assay: as above; type: cell-based
Method: as §2, §3, §4

CfEcR-DEF mutant T52Q = CfEcR-DEF mutant T52Q (Choristoneura fumiferana, UniProt O77255, T335Q); assay: as above; type: cell-based
Method: as §2, §3, §4

CfEcR-DEF mutant W238M = CfEcR-DEF mutant W238M (Choristoneura fumiferana, UniProt O77255, W521M); assay: as above; type: cell-based
Method: as §2, §3, §4

[4] = test system: CfEcR-DEF mutant V107I/Y127E; assay: as above; type: cell-based, Choristoneura fumiferana; parameters: Concentration (mM) at max FI: unit not given here
Method: as §2
as §3, with “The contents of the transfection mix were mixed in a vortex mixer and let stand at room temperature for 30 minutes. At the end of incubation, 15 μL of transfection mix was added to the cells. The cells were maintained at 37° C. and 5% CO2 for 48 hours in 5% FBS.” left out
Reporter Assays: Cells were harvested 40 hours after adding ligands. […] Luciferase activity was measured using Dual-Luciferase reporter assay system from Promega Corporation following the manufacturer's instructions. Fold induction (FI) activities were calculated by dividing relative light units (“RLU”) in ligand treated cells with RLU in DMSO treated cells (untreated control).

[5] = relative to max fold induction of GS-E ligand
[6] = NIH3T3, mouse, 40 h, read-out: GS-E ligand max FI (relative to DMSO)
[7] = NIH3T3, 40 h, read-out: Rel Max FI

CfEcR-DEF mutant V107I/Y127E/T52V, sequence (P28702 299-449): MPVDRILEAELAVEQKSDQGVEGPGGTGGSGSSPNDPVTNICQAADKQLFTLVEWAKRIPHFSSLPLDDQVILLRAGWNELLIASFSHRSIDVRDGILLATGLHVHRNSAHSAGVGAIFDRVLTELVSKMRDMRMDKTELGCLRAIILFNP
CfEcR-DEF mutant V107I/Y127E/T52V, sequence (O77255 entry or part of it T335V/V390I/Y410E): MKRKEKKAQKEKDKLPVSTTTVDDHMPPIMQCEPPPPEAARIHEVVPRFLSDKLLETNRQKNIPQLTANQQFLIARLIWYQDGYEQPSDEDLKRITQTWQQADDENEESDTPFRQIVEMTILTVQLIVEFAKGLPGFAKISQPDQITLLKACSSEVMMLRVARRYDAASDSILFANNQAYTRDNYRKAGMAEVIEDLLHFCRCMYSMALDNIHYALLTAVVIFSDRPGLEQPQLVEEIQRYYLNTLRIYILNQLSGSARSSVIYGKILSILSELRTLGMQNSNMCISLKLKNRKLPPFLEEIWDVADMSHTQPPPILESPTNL
CfEcR-DEF mutant M125R, sequence (P28702 299-449): as the sequence (P28702 299-449) above
CfEcR-DEF mutant M125R, sequence (O77255 entry or part of it M408R): as the sequence (O77255 entry or part of it T335V/V390I/Y410E) above, with V117T, I172V, M190R, E192Y counted along it
CfEcR-DEF mutant A110W, sequence (P28702 299-449, stated change not applied): as the sequence (P28702 299-449) above
CfEcR-DEF mutant A110W, sequence (O77255 entry or part of it A393W): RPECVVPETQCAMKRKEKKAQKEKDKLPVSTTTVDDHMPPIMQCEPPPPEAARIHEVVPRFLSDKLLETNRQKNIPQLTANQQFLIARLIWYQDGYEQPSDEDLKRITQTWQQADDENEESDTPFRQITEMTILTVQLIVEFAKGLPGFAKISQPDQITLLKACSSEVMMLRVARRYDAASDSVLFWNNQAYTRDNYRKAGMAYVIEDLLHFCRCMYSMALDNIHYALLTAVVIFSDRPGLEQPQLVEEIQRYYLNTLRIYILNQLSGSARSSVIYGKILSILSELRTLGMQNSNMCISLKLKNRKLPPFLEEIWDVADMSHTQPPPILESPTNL
CfEcR-DEF mutant V107I/Y127E/G, sequence (P28702 299-449, stated change not applied): as the sequence (P28702 299-449) above
CfEcR-DEF mutant V107I/Y127E/G, sequence (O77255 entry or part of it V390I/Y410E/INS541G): as the sequence (O77255 entry or part of it T335V/V390I/Y410E) above, with V117T, I172V, E192Y counted along it
CfEcR-DEF mutant M125W, sequence (O77255 entry or part of it M408W): as the sequence (O77255 entry or part of it A393W) above, with W187A, M202W counted along it
CfEcR-DEF mutant M125W, sequence (P28702 299-449, further chain): as the sequence (P28702 299-449) above
CfEcR-DEF mutant F48N, sequence (O77255 entry or part of it F331N): as the sequence (O77255 entry or part of it A393W) above, with F125N, W187A counted along it
CfEcR-DEF mutant F48N, sequence (P28702 299-449, further chain): as the sequence (P28702 299-449) above
CfEcR-DEF mutant T52V/A110P, sequence (O77255 entry or part of it T335V/A393P): as the sequence (O77255 entry or part of it T335V/V390I/Y410E) above, with I172V, A175P, E192Y counted along it
CfEcR-DEF mutant T52V/A110P, sequence (P28702 299-449, stated change not applied, further chain): as the sequence (P28702 299-449) above
CfEcR-DEF mutant L132M, sequence (O77255 entry or part of it L415M): as the sequence (O77255 entry or part of it A393W) above, with W187A, L209M counted along it
CfEcR-DEF mutant L132M, sequence (P28702 298-449, further chain): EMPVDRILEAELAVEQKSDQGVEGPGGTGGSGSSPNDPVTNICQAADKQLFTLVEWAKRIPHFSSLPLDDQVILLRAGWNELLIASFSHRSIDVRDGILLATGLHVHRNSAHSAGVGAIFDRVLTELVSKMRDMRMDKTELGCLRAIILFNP
CfEcR-DEF mutant M125I, sequence (O77255 entry or part of it M408I): as the sequence (O77255 entry or part of it A393W) above, with W187A, M202I counted along it
CfEcR-DEF mutant M125I, sequence (P28702 299-449, further chain): as the sequence (P28702 299-449) above
CfEcR-DEF mutant F48R, sequence (O77255 entry or part of it F331R): as the sequence (O77255 entry or part of it A393W) above, with F125R, W187A counted along it
CfEcR-DEF mutant F48R, sequence (P28702 299-449, further chain): as the sequence (P28702 299-449) above
CfEcR-DEF mutant W238M, sequence (P28702 299-449): as above
CfEcR-DEF mutant W238M, sequence (O77255 entry or part of it W521M): as the sequence (O77255 entry or part of it A393W) above, with W187A, W315M counted along it
CfEcR-DEF mutant T52Q, sequence (P28702 299-449): as the sequence (P28702 299-449) above
CfEcR-DEF mutant T52Q, sequence (O77255 entry or part of it T335Q): as the sequence (O77255 entry or part of it T335V/V390I/Y410E) above, with V117Q, I172V, E192Y counted along it
CfEcR-DEF mutant L234W, sequence (O77255 entry or part of it L517W): as the sequence (O77255 entry or part of it A393W) above, with W187A, L311W counted along it
CfEcR-DEF mutant L234W, sequence (P28702 299-449, further chain): as the sequence (P28702 299-449) above

With `CCc1cccc(C(=O)NN(C(=O)c2cc(C)cc(C)c2)C(C)(C)C)c1C` [RG-101691, 3,5-Dimethyl-benzoic acid N-tert-butyl-N′-(3-ethyl-2-methyl-benzoyl)-hydrazide] the EC50 (CfEcR-DEF mutant A110W) was 1060 nM, the Emax (CfEcR-DEF mutant A110W) was 80% and the EC50 (CfEcR-DEF mutant M125R) was roughly 10000 nM. For the same molecule, the Emax (CfEcR-DEF mutant M125R) was 1%, the EC50 (CfEcR-DEF mutant F48N) was 1730 nM and the Emax (CfEcR-DEF mutant F48N) was 88%. For the same molecule, the EC50 (CfEcR-DEF mutant M125W) was 4940 nM, the Emax (CfEcR-DEF mutant M125W) was 74% and the EC50 [1] was 240 nM. For the same molecule, the Emax [1] was 66%, the EC50 [2] was 20 nM and the Emax [2] was 88%. It also gave an EC50 [3] of 20 nM, an Emax [3] of 85% and an Emax (CfEcR-DEF mutant L132M) of 8%. The Emax (CfEcR-DEF mutant L132M; [5]) was 77%.
In the case of `CCc1c(OC)cccc1C(=O)NN(C(=O)c1cc(C)cc(C)c1)C(C)(C)C` [RG-102240, N-(2-ethyl-3-methoxybenzoyl)-N′-(3,5-dimethylbenzoyl)-N′-tert-butylhydrazine], the “GS-E ligand max FI (relative to DMSO)” value (CfEcR-DEF mutant F109P) is reported as 1, the “Concentration (mM) at max FI” value (CfEcR-DEF mutant F109P; GS-E ligand) is reported as 10.00 mM and the “GS-E ligand max FI (relative to DMSO)” value (CfEcR-DEF mutant I51N) is reported as 1. For the same molecule, the “Concentration (mM) at max FI” value (CfEcR-DEF mutant I51N; GS-E ligand) was 33.30 mM, the “GS-E ligand max FI (relative to DMSO)” value (CfEcR-DEF mutant L132N) was 785 and the “Concentration (mM) at max FI” value (CfEcR-DEF mutant L132N; GS-E ligand) was 33.30 mM. For the same molecule, the “Fold increase over WT” value (CfEcR-DEF mutant N119F; 1.6 nM ligand) was 1.22, the “Fold increase over WT” value (CfEcR-DEF mutant N119F; 8 nM ligand) was 0.73 and the “Fold increase over WT” value (CfEcR-DEF mutant N119F; 40 nM ligand) was 0.06. The “Fold increase over WT” value (CfEcR-DEF mutant N119F; 200 nM ligand) was 0.01, the “Fold increase over WT” value (CfEcR-DEF mutant N119F; 1 μM ligand) was 0.08 and the “Fold increase over WT” value (CfEcR-DEF mutant N119F; 5 μM ligand) was 0.59. It also gave an EC50 (CfEcR-DEF mutant A110W) of 1370 nM, an Emax (CfEcR-DEF mutant A110W) of 100% and a maximal fold induction (CfEcR-DEF mutant A110W; [6]) of 5210. The “Concentration (mM) at max FI” value (CfEcR-DEF mutant A110W; mutant A110W, GS-E ligand) was 10.00 mM, the EC50 (CfEcR-DEF mutant M125R) was 3700 nM and the Emax (CfEcR-DEF mutant M125R) was 0%. The maximal fold induction (CfEcR-DEF mutant M125R; [6]) was 2410, the “Concentration (mM) at max FI” value (CfEcR-DEF mutant M125R; mutant M125R, GS-E ligand) was 33.3 mM and the EC50 (CfEcR-DEF mutant F48N) was 750 nM. The Emax (CfEcR-DEF mutant F48N) was 100%, the EC50 (CfEcR-DEF mutant F48R) was 7230 nM and the Emax (CfEcR-DEF mutant F48R; [7]) was 100%. It also gave an EC50 (CfEcR-DEF mutant L234W) of 11500 nM, an Emax (CfEcR-DEF mutant L234W; [7]) of 100% and an EC50 (CfEcR-DEF mutant M125I) of 1360 nM. For the same molecule, the Emax (CfEcR-DEF mutant M125I; [7]) was 100%, the EC50 (CfEcR-DEF mutant M125W) was 3490 nM and the Emax (CfEcR-DEF mutant M125W) was 100%. It also gave an EC50 (CfEcR-DEF mutant T52Q) of 2950 nM, an Emax (CfEcR-DEF mutant T52Q; [7]) of 100% and an EC50 [1] of 330 nM. The Emax [1] was 100%, the EC50 [2] was 60 nM and the Emax [2] was 100%. It also gave an EC50 (CfEcR-DEF mutant W238M) of 10500 nM, an Emax (CfEcR-DEF mutant W238M; NIH3T3, 40 h, read-out: Rel MaxFI) of 100% and an EC50 [3] of 170 nM. The Emax [3] was 100%, the Emax (CfEcR-DEF mutant L132M) was 100% and the Emax (CfEcR-DEF mutant L132M; [5]) was 100%. For the same molecule, the maximal fold induction (CfEcR-DEF mutant L132M; [6]) was 1520, the “Concentration at max FI” value (CfEcR-DEF mutant L132M; mutant L132M, GS-E ligand) was 10.00 mM and the “GS-E ligand max FI (relative to DMSO)” value [4] was 3146. The “Concentration (mM) at max FI” value ([4]; GS-E ligand) was 10.

Reference: US9163256B2, “Mutant receptors and their use in a nuclear receptor-based inducible gene expression system” (priority 2004, dated 2015)
